Columns and labels:
[1] = target: T1, JAK1 (Homo sapiens, UniProt P23458); test: JAK1 enzyme activity assay (Thermo Fisher Selectscreen, Z-lyte); type: biochemical; conditions: read-out: JAK1 Inhibition IC50
T1 construct: purchased Thermo Fisher Scientific (SelectScreen service)
How it was run: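 Z-lyte FRET kinase assay with 21.2-91.5 ng JAK1 and 2 μM Tyr 06 peptide in 50 mM HEPES pH 7.0, 10 mM MgCl2, 1 h reaction before development reagent. Background without enzyme, uninhibited signal with 2% DMSO vehicle; 11-point dose-response, IC50 from 4-parameter logistic fit of emission ratio.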

[2] = target: T2, Tyk-2 (Homo sapiens, UniProt P29597); test: Tyk-2 enzyme activity assay (Thermo Fisher Selectscreen, Z-lyte); type: biochemical; conditions: read-out: Tyk-2 Inhibition IC50
T2 construct: purchased Thermo Fisher Scientific (SelectScreen service)
How it was run: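 Z-lyte FRET assay with 3.75-15 ng TYK2 and 2 μM Tyr 03 peptide in 50 mM HEPES pH 7.0, 10 mM MgCl2, 1 mM EGTA, 0.01% BRIJ-35. Reaction ran one hour before development reagent was added. Compounds were tested in an 11-point dose-response; IC50 came from a 4-parameter logistic fit of emission ratio, normalised to no-enzyme and 2% DMSO vehicle controls.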

[3] = test system: IL-2 stimulated STAT5 phosphorylation on Tyr694 (JAK1/3); test: JAK1/3 cellular target modulation: IL-2 stimulated phospho-STAT5 in human PBMC; type: cell-based; conditions: IL-2 25 ng/ml, read-out: IL2-STAT5 IC50
How it was run: (§1)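 Thawed human PBMC (200,000/well) preincubated with compound 1 h at 37°C, then stimulated with IL-12 1.7 ng/ml for 25 min, IFNγ 10 ng/ml for 10 min, or IL-2 25 ng/ml for 5 min. Lysate phospho-STAT4 Tyr693 and phospho-STAT5 Tyr694 read by MSD; phospho-STAT1 Tyr701 by sandwich ELISA.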

[4] = target: T3, JAK3 (a.a. 781-1124) (Homo sapiens, UniProt P52333); test: JAK3 enzyme activity assay (SRCtide phosphorylation, Caliper); type: biochemical; conditions: 1 uM ATP; read-out: JAK3 Inhibition IC50
T3 construct: JAK3 (a.a. 781-1124, ThermoFisher); purchased ThermoFisher
How it was run: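 Kinase reactions used 2.5 nM JAK3 (aa 781-1124), 1 μM FAM-SRCtide and 1 uM ATP in HEPES pH 7.5, MgCl2, BSA, Tween-20, 2% DMSO. Incubation was 40 min at room temperature, stopped with EDTA. Phospho/unphospho peptide separated by Caliper mobility shift; IC50 from 11-point 3-fold 4-parameter fits.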

[5] = test system: IL-12 stimulated STAT4 phosphorylation on Tyr693 (JAK2/TYK2); test: JAK2/TYK2 cellular target modulation: IL-12 stimulated phospho-STAT4 in human PBMC; type: cell-based; conditions: IL-12 1.7 ng/ml, read-out: IL12-STAT4 IC50
How it was run: as §1

T3 sequence (P52333 781-1124): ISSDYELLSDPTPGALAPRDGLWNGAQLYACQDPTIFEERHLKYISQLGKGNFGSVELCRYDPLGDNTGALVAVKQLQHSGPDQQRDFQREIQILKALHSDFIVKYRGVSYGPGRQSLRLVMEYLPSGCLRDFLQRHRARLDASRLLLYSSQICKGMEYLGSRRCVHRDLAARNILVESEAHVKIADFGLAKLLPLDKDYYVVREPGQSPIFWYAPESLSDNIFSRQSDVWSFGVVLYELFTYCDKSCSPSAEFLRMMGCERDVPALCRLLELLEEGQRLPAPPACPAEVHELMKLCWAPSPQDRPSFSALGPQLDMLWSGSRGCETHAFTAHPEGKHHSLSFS
T1 sequence (P23458 whole entry): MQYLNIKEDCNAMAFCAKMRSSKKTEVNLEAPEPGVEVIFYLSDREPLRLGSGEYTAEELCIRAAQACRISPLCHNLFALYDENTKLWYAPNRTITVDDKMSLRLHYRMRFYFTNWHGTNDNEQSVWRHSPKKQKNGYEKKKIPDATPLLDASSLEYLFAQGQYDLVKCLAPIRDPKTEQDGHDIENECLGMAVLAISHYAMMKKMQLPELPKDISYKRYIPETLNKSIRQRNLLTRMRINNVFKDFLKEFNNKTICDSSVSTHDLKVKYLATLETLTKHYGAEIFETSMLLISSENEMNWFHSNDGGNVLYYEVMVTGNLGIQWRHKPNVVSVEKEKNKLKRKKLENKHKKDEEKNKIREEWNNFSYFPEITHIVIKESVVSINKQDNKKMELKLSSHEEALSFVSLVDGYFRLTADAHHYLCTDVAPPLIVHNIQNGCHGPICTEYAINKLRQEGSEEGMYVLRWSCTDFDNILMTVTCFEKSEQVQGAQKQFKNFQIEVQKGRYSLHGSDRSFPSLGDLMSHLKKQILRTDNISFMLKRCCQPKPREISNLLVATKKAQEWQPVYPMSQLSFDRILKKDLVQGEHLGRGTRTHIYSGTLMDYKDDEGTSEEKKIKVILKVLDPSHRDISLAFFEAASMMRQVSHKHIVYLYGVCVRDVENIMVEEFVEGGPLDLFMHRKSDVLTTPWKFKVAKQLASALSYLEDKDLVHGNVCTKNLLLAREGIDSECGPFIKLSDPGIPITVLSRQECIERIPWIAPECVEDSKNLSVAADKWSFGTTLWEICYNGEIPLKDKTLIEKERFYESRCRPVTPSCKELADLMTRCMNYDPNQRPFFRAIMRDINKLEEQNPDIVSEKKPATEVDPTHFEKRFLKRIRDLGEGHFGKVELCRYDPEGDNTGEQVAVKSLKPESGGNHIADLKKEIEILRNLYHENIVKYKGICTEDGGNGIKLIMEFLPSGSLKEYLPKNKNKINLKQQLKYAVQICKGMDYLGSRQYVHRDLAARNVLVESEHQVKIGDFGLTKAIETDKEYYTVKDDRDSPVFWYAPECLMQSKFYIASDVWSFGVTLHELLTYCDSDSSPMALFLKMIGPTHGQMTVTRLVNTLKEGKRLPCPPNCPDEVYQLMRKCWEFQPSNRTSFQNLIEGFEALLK
T2 sequence (P29597 whole entry): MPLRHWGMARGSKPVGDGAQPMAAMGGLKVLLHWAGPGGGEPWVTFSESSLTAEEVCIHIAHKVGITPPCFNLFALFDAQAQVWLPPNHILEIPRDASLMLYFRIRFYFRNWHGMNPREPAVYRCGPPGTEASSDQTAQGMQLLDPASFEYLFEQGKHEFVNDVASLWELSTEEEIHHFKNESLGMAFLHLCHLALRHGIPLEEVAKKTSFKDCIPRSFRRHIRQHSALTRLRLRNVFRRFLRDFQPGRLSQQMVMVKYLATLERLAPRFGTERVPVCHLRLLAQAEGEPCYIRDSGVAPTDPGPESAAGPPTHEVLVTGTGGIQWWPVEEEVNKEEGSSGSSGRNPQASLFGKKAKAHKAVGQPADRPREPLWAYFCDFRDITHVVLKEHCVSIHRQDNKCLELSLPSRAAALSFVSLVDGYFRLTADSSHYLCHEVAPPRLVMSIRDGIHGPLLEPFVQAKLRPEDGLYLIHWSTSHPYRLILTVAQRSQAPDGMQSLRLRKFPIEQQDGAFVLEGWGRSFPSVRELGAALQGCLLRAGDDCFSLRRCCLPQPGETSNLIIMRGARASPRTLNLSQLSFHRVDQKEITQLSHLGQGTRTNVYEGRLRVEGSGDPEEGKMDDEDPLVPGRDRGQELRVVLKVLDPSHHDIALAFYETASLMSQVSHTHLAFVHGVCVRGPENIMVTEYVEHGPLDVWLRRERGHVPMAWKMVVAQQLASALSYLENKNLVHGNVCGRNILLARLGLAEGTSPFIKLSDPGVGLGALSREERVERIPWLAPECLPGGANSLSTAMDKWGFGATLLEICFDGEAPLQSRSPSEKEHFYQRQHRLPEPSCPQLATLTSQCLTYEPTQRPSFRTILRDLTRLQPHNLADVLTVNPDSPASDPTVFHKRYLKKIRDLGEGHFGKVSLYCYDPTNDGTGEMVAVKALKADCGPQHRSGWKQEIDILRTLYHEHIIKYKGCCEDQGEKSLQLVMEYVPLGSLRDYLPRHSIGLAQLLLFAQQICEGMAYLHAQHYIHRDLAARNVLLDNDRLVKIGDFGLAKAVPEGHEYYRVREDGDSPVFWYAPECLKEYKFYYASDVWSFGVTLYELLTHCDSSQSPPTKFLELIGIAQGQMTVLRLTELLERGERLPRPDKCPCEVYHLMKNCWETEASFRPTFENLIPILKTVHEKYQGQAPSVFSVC

- IC50 [1]: ≤ 0.01 µM
- IC50 [2]: ≤ 0.01 µM
- IC50 [3]: ≤ 0.1 µM
- IC50 [4]: 0.01 to 0.1 µM
- IC50 [5]: 0.1 to 1 µM
SMILES: Cc1nnc(-c2cnc3[nH]ccc3c2N[C@H]2C[C@@H](NS(=O)(=O)c3cccc(C#N)c3)C2)s1 [Example 75, 3-cyano-N-((1s,3s)-3-((5-(5-methyl-1,3,4-thiadiazol-2-yl)-1H-pyrrolo[2,3-b]pyridin-4-yl)amino)cyclobutyl)benzenesulfonamide]
